Results published in article PMC8187357 (Communications Biology, 2021).
Where “and” joins values, the source holds several entries; their conditions need not be identical. Identical values can stand only once. Like-named read-outs stand apart in the source and are kept apart here.

How the values were obtained:
[1] = test system: GABA; assay: CEREP 80 panel binding: GABA; conditions: 10 µM
Description: (§1) CEREP 80 panel assay was carried out by Eurofins Cerep Panlabs facility at France. A series of binding assays was carried out to understand the off-target toxicity of CA-170. CA-170 was tested at 10 μM test concentration in duplicates. Compound binding was calculated as a % inhibition of the binding of a radioactively labeled ligand specific for each target. In each experiment the respective reference compound was tested concurrently with CA-170, and the data were compared with historical values determined at Eurofins. The experiment was accepted in accordance with Eurofins validation standard operating procedure. The results are expressed as a percent of control specific binding; (measured specific binding / control specific binding) × 100 and as a percent inhibition of control specific binding; 100−(measured specific binding / control specific binding) × 100 obtained in the presence of CA-170. The IC50 values (concentration causing a half-maximal inhibition of control specific binding) and Hill coefficients (nH) were determined by non-linear regression analysis of the competition curves generated with mean replicate values using Hill equation curve fitting.

[2] = test system: Somatostatin sst; assay: CEREP 80 panel binding: Somatostatin; conditions: 10 µM
Description: as §1

[3] = test system: CT26 colon carcinoma model; assay: Immune pharmacodynamics in CT26 colon carcinoma model; type: in vivo, mouse; conditions: CT26 tumor infiltrating lymphocytes, CA-170 10 mg/kg daily, PD-1 antibody J43 100 µg/animal, 5 days, individual animals
Excerpt: For the measurement of immune pharmacodynamics, CT26 cells were subcutaneously implanted into 5 to 7 weeks old male Balb/c mice by injecting 1 million CT26 tumor cells/ animal. When tumor volume reached ~200mm^3, animals were randomized and allocated to three treatment groups (n = 5). Similarly, for the measurement of immune pharmacodynamics in MC38 model, MC38 cell lines were subcutaneously implanted into 5 to 7 weeks old male C57B6 mice by injecting 0.5 million cells/animal. Dosing was initiated when tumor volume reached ~100 mm^3. In both tumor models, mice were orally treated daily with vehicle and CA-170 (10 mg/kg) for 5 days. As an additional control, anti-PD1 antibody (100 μg/animal, clone J43) was dosed intraperitoneally on day 1. After 24 h of last dosing, animals were sacrificed, and blood samples and tumor tissues were collected from each animal and processed for PD evaluation using antibodies shown in Supplementary Table 1 and specific methods reported in publication[51] and analyzed by FACS. The gating strategy is detailed in Supplementary Fig. 3.

[4] = test system: Histamine H1,H2; assay: CEREP 80 panel binding: Histamine; conditions: 10 µM
Description: as §1

[5] = Pharmacokinetics in mice; type: in vivo, mouse
Description: Animals in Group 1 were administered with 5% w/v dextrose in water and Group 2 were administered with corresponding formulation listed in the Supplementary Table 6 through oral routes. Blood samples (approximately 40 μl) were collected under light isoflurane anesthesia from submandibular at predose, 0.08 (IV), 0.25, 0.5, 1, 2, 4, 8, and 24 h using sparse sampling technique. Plasma samples were separated by centrifugation of whole blood and stored below −70 °C until bioanalysis. All samples were processed for analysis by protein precipitation and analyzed with fit-for-purpose LC–MS/MS method.

[6] = target: T1, Bradykinin B2 (Homo sapiens, UniProt P30411); assay: CEREP 80 panel binding: Bradykinin; conditions: read-out: % Inhibition of Control Specific Binding
T1 construct: Eurofins Cerep Panlabs (contract assay)
T1 sequence (P30411 whole entry): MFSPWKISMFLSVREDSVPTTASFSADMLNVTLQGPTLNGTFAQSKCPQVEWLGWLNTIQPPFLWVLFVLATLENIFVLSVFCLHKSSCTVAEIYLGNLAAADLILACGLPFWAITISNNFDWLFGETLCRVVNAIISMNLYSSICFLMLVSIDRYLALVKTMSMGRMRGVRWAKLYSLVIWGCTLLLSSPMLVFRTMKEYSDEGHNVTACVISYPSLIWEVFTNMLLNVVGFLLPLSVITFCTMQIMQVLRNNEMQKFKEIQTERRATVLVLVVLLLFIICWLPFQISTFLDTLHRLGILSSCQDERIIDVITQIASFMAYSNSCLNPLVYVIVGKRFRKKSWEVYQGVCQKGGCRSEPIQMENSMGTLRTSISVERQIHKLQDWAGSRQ
Description: as §1

[7] = test system: PDGF; assay: CEREP 80 panel binding: Growth factors; conditions: 10 µM
Description: as §1

[8] = test system: BZD (peripheral), BZD (central); assay: CEREP 80 panel binding: Benzodiazepine; conditions: 10 µM
Description: as §1

[9] = test system: 5HT1A, 5HT1B, 5HT2A, 5HT2B, 5HT2C, 5HT3, 5HT5A, 5HT6, 5HT7; assay: CEREP 80 panel binding: Serotonin; conditions: 10 µM
Description: as §1

[10] = test system: NFAT reporter; set-up: method as in PMID 31374878; conditions: cited from earlier work
[11] = target: T2, Melanocortin MC4 (Homo sapiens, UniProt P32245); assay: CEREP 80 panel binding: Melanocortin; conditions: read-out: % Inhibition of Control Specific Binding
T2 construct: Eurofins Cerep Panlabs (contract assay)
T2 sequence (P32245 whole entry): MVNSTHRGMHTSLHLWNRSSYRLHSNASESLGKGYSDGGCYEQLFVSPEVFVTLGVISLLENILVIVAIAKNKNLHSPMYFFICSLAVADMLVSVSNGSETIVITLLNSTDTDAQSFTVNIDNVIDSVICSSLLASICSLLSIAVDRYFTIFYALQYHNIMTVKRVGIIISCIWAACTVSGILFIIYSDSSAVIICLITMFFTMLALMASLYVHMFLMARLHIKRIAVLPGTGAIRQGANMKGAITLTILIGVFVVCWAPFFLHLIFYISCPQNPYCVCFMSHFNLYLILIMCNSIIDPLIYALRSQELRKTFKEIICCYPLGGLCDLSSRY
Description: as §1

[12] = test system: Glutamate PCP; assay: CEREP 80 panel binding: Glutamate; conditions: 10 µM
Description: as §1

[13] = test system: broad panel of receptors and enzymes; assay: CEREP 80-panel profiling, whole panel; type: binding; conditions: CEREP profiling assay
Description: as §1

[14] = test system: GR, PPARγ; assay: CEREP 80 panel binding: Nuclear receptors; conditions: 10 µM
Description: as §1

In the case of `C[C@@H](O)[C@H](NC(=O)N[C@@H](CC(N)=O)c1nc([C@@H](N)CO)no1)C(=O)O` [CA-170], the “% Inhibition of Control Specific Binding” value [1] is reported as 11%, the “% Inhibition of Control Specific Binding” value [2] is reported as 1% and the “Ki-67+ cells % Live, CD45+, CD3+, CD4+ T cells” value [3] is reported as 57.1% and 63.22% and 64.66% and 82.55% and 45.02%. The “Ki-67+ cells % Live, CD45+, CD3+, CD8+ T cells” value [3] was 71.24% and 82.88% and 69.7% and 88.94% and 68.84%, the “OX-40+ cells % Live, CD45+, CD3+, CD4+ T cells” value [3] was 56.66% and 56.78% and 46.34% and 42.73% and 29.6% and the “OX-40+ cells % Live, CD45+, CD3+, CD8+ T cells” value [3] was 87.3% and 96.29% and 95.65% and 95.1% and 35.3%. The “% Inhibition of Control Specific Binding” value [4] was less than 0%, the AUC ([5]; male, CD-1, mouse, plasma, mice, intravenous 1 mg kg−1, read-out: Mice PK parameters AUCi iv(0-α)) was 4200 ng·h/mL and the clearance ([5]; male, CD-1, mouse, plasma, mice, intravenous 1 mg kg−1, read-out: Mice PK parameters Clearance (converted)) was 12.1 mL/min/kg. It also gave a bioavailability ([5]; male, CD-1, mouse, plasma, mice, iv 1 mg kg−1, oral 30 mg kg−1, read-out: Mice PK parameters % F) of 50%, an AUC ([5]; male, CD-1, mouse, plasma, mice, oral 30 mg kg−1, read-out: Mice PK parameters AUC po (0-α)) of 19600 ng·h/mL and a Cmax ([5]; male, CD-1, mouse, plasma, mice, oral 30 mg kg−1, read-out: Mice PK parameters Cmax) of 1720 ng/mL. For the same compound, the half-life ([5]; male, CD-1, mouse, plasma, preclinical PK exposure) was 204 min, the “oral bioavailability (in words)” value ([5]; mouse, in vivo, po) was “good oral bioavailability” and the inhibition at 10 µM [6] was less than 0%. For the same compound, the “% Inhibition of Control Specific Binding” value [7] was 6%, the “% Inhibition of Control Specific Binding” value [8] was no more than 5% and the “% Inhibition of Control Specific Binding” value [9] was no more than 20%. The “activity in NFAT-reporter-based assay (in words)” value [10] was “no activity”, the inhibition at 10 µM [11] was 0% and the “% Inhibition of Control Specific Binding” value [12] was 5%. The “interaction with panel of receptors and enzymes (in words)” value [13] was “minimal or no interaction” and the “% Inhibition of Control Specific Binding” value [14] was no more than 7%.
